From patent US7902327B2, “Dendrimeric peptides, pharmaceutical compositions and methods of using the same” (New York University School of Medicine, priority 2007, dated 2011)
Values after ≈ are worked out from the molar mass of the structure shown. Where a SMILES comes first, the peptide text is derived from it. Side-chain parts run from the residue outwards. [ ]: non-standard residue; d: D form. The star is where a group is joined. Lys(α,ε-(ArgTrp)2) = N=C(N)NCCC[C@H](N)C(=O)N[C@@H](Cc1c[nH]c2ccccc12)C(=O)NCCCC[C@H](NC(=O)[C@H](Cc1c[nH]c2ccccc12)NC(=O)[C@@H](N)CCCNC(=N)N)C(=O)*; NHBn = c1ccc(CN*)cc1; OBn = c1ccc(CO*)cc1; X1 = CCCCCCCCCN*; βAla = NCCC(=O)O

System: E. faecalis (29212)
Conditions: 29212

| SMILES | MIC50 E. faecalis [mg/L] |
| --- | --- |
| N=C(N)NCCC[C@H](N)C(=O)N[C@@H](Cc1c[nH]c2ccccc12)C(=O)NCCCC[C@H](NC(=O)[C@H](Cc1c[nH]c2ccccc12)NC(=O)[C@@H](N)CCCNC(=N)N)C(=O)NCCCC[C@H](NC(=O)[C@H](CCCCNC(=O)[C@H](Cc1c[nH]c2ccccc12)NC(=O)[C@@H](N)CCCNC(=N)N)NC(=O)[C@H](Cc1c[nH]c2ccccc12)NC(=O)[C@@H](N)CCCNC(=N)N)C(=O)NCCC(=O)NCc1ccccc1 [(RW)4D-Benzyl amine] (H-RWK([Trp-Arg])K(Lys(α,ε-(ArgTrp)2))[βAla]-NHBn) | 5.1 (≈ 2.64 µM) |
| N=C(N)NCCC[C@H](N)C(=O)N[C@@H](Cc1c[nH]c2ccccc12)C(=O)NCCCC[C@H](NC(=O)[C@H](Cc1c[nH]c2ccccc12)NC(=O)[C@@H](N)CCCNC(=N)N)C(=O)NCCCC[C@H](NC(=O)[C@H](CCCCNC(=O)[C@H](Cc1c[nH]c2ccccc12)NC(=O)[C@@H](N)CCCNC(=N)N)NC(=O)[C@H](Cc1c[nH]c2ccccc12)NC(=O)[C@@H](N)CCCNC(=N)N)C(=O)NCCC(=O)OCc1ccccc1 [(RW)4D-Benzyl ester] (H-RWK([Trp-Arg])K(Lys(α,ε-(ArgTrp)2))[βAla]-OBn) | 6.7 (≈ 3.47 µM) |
| CCCCCCCCCNC(=O)CCNC(=O)[C@H](CCCCNC(=O)[C@H](CCCCNC(=O)[C@H](Cc1c[nH]c2ccccc12)NC(=O)[C@@H](N)CCCNC(=N)N)NC(=O)[C@H](Cc1c[nH]c2ccccc12)NC(=O)[C@@H](N)CCCNC(=N)N)NC(=O)[C@H](CCCCNC(=O)[C@H](Cc1c[nH]c2ccccc12)NC(=O)[C@@H](N)CCCNC(=N)N)NC(=O)[C@H](Cc1c[nH]c2ccccc12)NC(=O)[C@@H](N)CCCNC(=N)N [(RW)4D-Nonylamine] (H-RWK([Trp-Arg])K(Lys(α,ε-(ArgTrp)2))[βAla]-X1) | 5.7 (≈ 2.9 µM) |
